Results as given in the supplement of paper PMC12698765.
Counter-ions that a name gives are not always drawn. ± gives the standard deviation of the averaged measurements.

Legend:
[1] = tested on: 409B2 hiPSC (iCRISPR Cas9, FRMD7 editing); test: cell survival relative to solvent control (fold (ratio to mock)); higher = more surviving cells
Procedure: (§1)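 Subset screen of 55 drugs tested at 5 concentrations around the effective screening dose, in 409B2 iCRISPR Cas9 hiPSCs editing FRMD7 with a ssDNA donor. Drugs were applied for 24 h. Viability was read by resazurin and editing outcomes by amplicon sequencing (HDR, NHEJ <2 bp microhomology, MMEJ ≥2 bp microhomology). Values are relative to solvent mock controls; two biological replicates.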

[2] = tested on: 409B2 hiPSC (iCRISPR Cas9, FRMD7 editing); test: MMEJ-attributed deletion frequency relative to solvent control (fold (ratio to mock)); higher = more MMEJ outcomes
Procedure: as §1

[3] = tested on: 409B2 hiPSC (iCRISPR Cas9, FRMD7 editing); test: HDR (precise edit) frequency relative to solvent control (fold (ratio to mock)); higher = more homology-directed repair outcomes
Procedure: as §1

[4] = tested on: 409B2 hiPSC (iCRISPR Cas9, FRMD7 editing); test: NHEJ-attributed indel frequency relative to solvent control (fold (ratio to mock)); higher = more NHEJ outcomes
Procedure: as §1

SMILES	cell survival ([1]; 20 nM)	cell survival ([1]; 50 nM)	cell survival ([1]; 100 nM)	cell survival ([1]; 200 nM)	cell survival ([1]; 500 nM)	MMEJ-attributed deletion frequency ([2]; 20 nM)	MMEJ-attributed deletion frequency ([2]; 50 nM)	MMEJ-attributed deletion frequency ([2]; 100 nM)	MMEJ-attributed deletion frequency ([2]; 200 nM)	MMEJ-attributed deletion frequency ([2]; 500 nM)	HDR ([3]; 20 nM)	HDR ([3]; 50 nM)	HDR ([3]; 100 nM)	HDR ([3]; 200 nM)	HDR ([3]; 500 nM)	NHEJ-attributed indel frequency ([4]; 20 nM)	NHEJ-attributed indel frequency ([4]; 50 nM)	NHEJ-attributed indel frequency ([4]; 100 nM)	NHEJ-attributed indel frequency ([4]; 200 nM)	NHEJ-attributed indel frequency ([4]; 500 nM)	also measured
CO[C@@H]1[C@H](OC(=O)/C=C/C=C/C=C/C=C/C(=O)O)CC[C@]2(CO2)[C@H]1[C@@]1(C)O[C@@H]1CC=C(C)C [Fumagillin] (in DMSO)	0.264	0.134	0.0522	0.0162	0.0244	0.749 ± 0.1	0.7745 ± 0.0004	0.739 ± 0.15	0.705 ± 0.15	0.656 ± 0.17	1.073 ± 0.0017	0.886 ± 0.049	0.791 ± 0.23	0.512 ± 0.27	0.471 ± 0.18	0.883 ± 0.019	0.767 ± 0.041	0.723 ± 0.14	0.604 ± 0.14	0.537 ± 0.071	
O[C@@H]1[C@H](O)[C@H](O)CO[C@H]1O [D-Ribose] (in DMSO)				1.06	1.16				0.939 ± 0.061	1.02 ± 0.1				1.13 ± 0.04	1.01 ± 0.06				0.9958 ± 0.0022	0.999 ± 0.01	cell survival ([1]; 1000 nM): 1.06; cell survival ([1]; 2000 nM): 1.1; cell survival ([1]; 5000 nM): 1.04; MMEJ-attributed deletion frequency ([2]; 1000 nM): 0.965 ± 0.026; MMEJ-attributed deletion frequency ([2]; 2000 nM): 1.012 ± 0.0071; MMEJ-attributed deletion frequency ([2]; 5000 nM): 1.02 ± 0.16; HDR ([3]; 1000 nM): 1.13 ± 0.075; HDR ([3]; 2000 nM): 1.05 ± 0.025; HDR ([3]; 5000 nM): 1.06 ± 0.05; NHEJ-attributed indel frequency ([4]; 1000 nM): 0.979 ± 0.013; NHEJ-attributed indel frequency ([4]; 2000 nM): 1 ± 0.012; NHEJ-attributed indel frequency ([4]; 5000 nM): 0.9861 ± 0.0075
O=C1CN(/N=C/c2ccc(-c3ccc([N+](=O)[O-])cc3)o2)C(=O)N1 [Dantrolene, sodium salt] (in DMSO)																					cell survival ([1]; 2000 nM): 0.934; cell survival ([1]; 5000 nM): 1.39; cell survival ([1]; 10000 nM): 1.14; cell survival ([1]; 20000 nM): 1.33; cell survival ([1]; 50000 nM): 1.33; MMEJ-attributed deletion frequency ([2]; 2000 nM): 1.09 ± 0.25; MMEJ-attributed deletion frequency ([2]; 5000 nM): 0.966 ± 0.099; MMEJ-attributed deletion frequency ([2]; 10000 nM): 0.9399 ± 0.0032; MMEJ-attributed deletion frequency ([2]; 20000 nM): 0.997 ± 0.048; MMEJ-attributed deletion frequency ([2]; 50000 nM): 0.979 ± 0.13; HDR ([3]; 2000 nM): 1.04 ± 0.091; HDR ([3]; 5000 nM): 0.873 ± 0.12; HDR ([3]; 10000 nM): 0.851 ± 0.068; HDR ([3]; 20000 nM): 0.547 ± 0.039; HDR ([3]; 50000 nM): 0.508 ± 0.039; NHEJ-attributed indel frequency ([4]; 2000 nM): 0.941 ± 0.052; NHEJ-attributed indel frequency ([4]; 5000 nM): 0.9996 ± 0.0056; NHEJ-attributed indel frequency ([4]; 10000 nM): 1.06 ± 0.0076; NHEJ-attributed indel frequency ([4]; 20000 nM): 1.199 ± 0.0027; NHEJ-attributed indel frequency ([4]; 50000 nM): 1.24 ± 0.034
Nc1ncnc2c1ncn2C1CC(O)C(CO)O1 (stereo not given) [2'-Deoxyadenosine monohydrate] (in DMSO)	0.996	1.12	1	1.1	1.12	0.957 ± 0.043	0.99 ± 0.071	0.999 ± 0.11	1.02 ± 0.036	1.02 ± 0.2	1.03 ± 0.021	1.02 ± 0.02	1.03 ± 0.11	1.01 ± 0.05	0.958 ± 0.062	1.01 ± 0.013	1.02 ± 0.015	1 ± 0.029	1.006 ± 0.008	1.01 ± 0.027	
CNCC[C@H](Oc1cccc2ccccc12)c1cccs1 [Duloxetine HCl] (in DMSO)																					cell survival ([1]; 2000 nM): 0.92; cell survival ([1]; 5000 nM): 1.24; cell survival ([1]; 10000 nM): 1.18; cell survival ([1]; 20000 nM): 0.796; cell survival ([1]; 50000 nM): 0.0121; MMEJ-attributed deletion frequency ([2]; 2000 nM): 1.09 ± 0.25; MMEJ-attributed deletion frequency ([2]; 5000 nM): 1.14 ± 0.069; MMEJ-attributed deletion frequency ([2]; 10000 nM): 1.36 ± 0.053; MMEJ-attributed deletion frequency ([2]; 20000 nM): 1.86 ± 0.036; MMEJ-attributed deletion frequency ([2]; 50000 nM): 1.42 ± 0.81; HDR ([3]; 2000 nM): 1.02 ± 0.13; HDR ([3]; 5000 nM): 1.14 ± 0.024; HDR ([3]; 10000 nM): 1.02 ± 0.0038; HDR ([3]; 20000 nM): 0.88 ± 0.06; HDR ([3]; 50000 nM): 0.33 ± 0.35; NHEJ-attributed indel frequency ([4]; 2000 nM): 0.932 ± 0.027; NHEJ-attributed indel frequency ([4]; 5000 nM): 0.986 ± 0.0019; NHEJ-attributed indel frequency ([4]; 10000 nM): 0.998 ± 0.025; NHEJ-attributed indel frequency ([4]; 20000 nM): 1.029 ± 0.0059; NHEJ-attributed indel frequency ([4]; 50000 nM): 0.517 ± 0.45
C1CCN2C[C@@H]3C[C@@H](CN4CCCC[C@@H]34)[C@H]2C1 [Sparteine] (in DMSO)	0.978	1.24	1	1.05	1.26	0.908 ± 0.028	0.866 ± 0.061	0.957 ± 0.098	1.03 ± 0.086	0.9904 ± 0.0051	1.11 ± 0.044	1.001 ± 0.0048	1.05 ± 0.061	1.04 ± 0.051	1.02 ± 0.15	0.9845 ± 0.0022	0.98809 ± 0.00026	1.01 ± 0.011	0.9919 ± 0.0066	0.988 ± 0.035	
